{"source": "ChEMBL document CHEMBL4715829", "about": "“Heterodimeric Rifampicin-Tobramycin conjugates break intrinsic resistance of Pseudomonas aeruginosa to doxycycline and chloramphenicol in vitro and in a Galleria mellonella in vivo model” (Eur J Med Chem, 2019)", "key": {"[1]": {"experiment": "Cytotoxicity against human HepG2 cells assessed as cell viability at 12 uM incubated for 48 hrs by prestoblue assay", "type": "cell-based", "settings": "read-out: Activity"}, "[2]": {"experiment": "Cytotoxicity against human HEK293 cells assessed as cell viability at 12 uM incubated for 48 hrs by prestoblue assay", "type": "cell-based", "settings": "read-out: Activity"}, "[3]": {"test_system": "Pseudomonas aeruginosa", "experiment": "Antibacterial activity against Pseudomonas aeruginosa 260-97103 infected in Galleria mellonella larvae assessed as survival of larvae up to 50 mg/kg measured after 24 hrs relative to control", "type": "functional, organism-based", "settings": "dose mg/kg <=50, time 24.0 hrs"}, "[4]": {"experiment": "Toxicity in Galleria mellonella larvae assessed as larval […] at 100 mg/kg measured after 24 hrs", "type": "organism-based", "settings": "in vivo"}}, "data": [{"compound": "COc1cccc2c1C(=O)c1c(O)c3c(c(O)c1C2=O)C[C@@](O)(C(=O)CO)C[C@@H]3O[C@H]1C[C@H](N)[C@H](O)[C@H](C)O1", "note": "[DOXORUBICIN]", "values": [{"measurement": "viability at 48 h, 12 µM", "setting": "[1]", "result": "< 10", "unit": "%"}, {"measurement": "viability at 48 h, 12 µM", "setting": "[2]", "result": "< 10", "unit": "%"}]}, {"compound": "COLISTIN", "values": [{"measurement": "Survival", "setting": "[3]", "result": "> 50", "unit": "%"}]}, {"compound": "C[C@@H](O)[C@H]1C(=O)N2C(C(=O)O)=C(S[C@@H]3CN[C@H](C(=O)N(C)C)C3)[C@H](C)[C@H]12", "note": "[MEROPENEM]", "values": [{"measurement": "mortality at 24 h", "setting": "[4]", "result": 100, "unit": "%"}]}]}
